Assay results from US10363251B2, “(+)-morphinans as antagonists of toll-like receptor 9 and therapeutic uses thereof” (Mallinckrodt LLC, priority 2009, dated 2019).

Target: T1, TLR9 (Homo sapiens, UniProt Q9NR96)
T1 construct: expressed in transfected cells; host or cells: HEK293
T1 sequence (Q9NR96 26-1032): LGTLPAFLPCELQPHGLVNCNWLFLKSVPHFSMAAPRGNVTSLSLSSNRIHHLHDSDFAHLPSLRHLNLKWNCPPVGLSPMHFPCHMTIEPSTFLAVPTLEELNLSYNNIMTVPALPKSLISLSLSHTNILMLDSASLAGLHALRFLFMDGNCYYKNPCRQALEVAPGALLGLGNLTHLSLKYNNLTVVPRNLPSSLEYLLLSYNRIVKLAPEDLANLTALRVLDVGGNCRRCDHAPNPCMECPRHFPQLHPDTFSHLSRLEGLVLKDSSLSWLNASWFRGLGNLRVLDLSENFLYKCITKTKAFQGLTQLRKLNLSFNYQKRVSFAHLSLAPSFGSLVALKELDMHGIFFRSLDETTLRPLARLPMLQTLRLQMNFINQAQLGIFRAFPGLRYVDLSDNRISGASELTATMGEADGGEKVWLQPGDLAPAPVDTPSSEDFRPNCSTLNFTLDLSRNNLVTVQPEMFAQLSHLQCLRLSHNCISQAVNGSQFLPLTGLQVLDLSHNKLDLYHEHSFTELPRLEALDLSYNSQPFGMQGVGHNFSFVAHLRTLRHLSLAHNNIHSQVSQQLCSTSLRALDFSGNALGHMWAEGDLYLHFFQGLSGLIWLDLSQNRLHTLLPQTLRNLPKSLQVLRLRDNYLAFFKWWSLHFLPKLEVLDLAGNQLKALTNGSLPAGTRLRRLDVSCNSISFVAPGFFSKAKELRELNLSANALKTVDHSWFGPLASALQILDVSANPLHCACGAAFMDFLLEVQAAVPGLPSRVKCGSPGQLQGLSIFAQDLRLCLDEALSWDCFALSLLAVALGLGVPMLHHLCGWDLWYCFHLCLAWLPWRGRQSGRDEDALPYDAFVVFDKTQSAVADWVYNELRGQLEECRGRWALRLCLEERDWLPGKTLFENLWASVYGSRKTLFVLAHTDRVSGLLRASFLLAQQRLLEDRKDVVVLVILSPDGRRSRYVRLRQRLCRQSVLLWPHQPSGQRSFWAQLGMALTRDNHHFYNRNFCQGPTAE
Assay: TLR9 screening of (+)-morphinan library, SEAP reporter in HEK293 cells expressing TLR9
Assay type: cell-based
Conditions: activator ODN2006; for OD 650 nm (mean ± sd): control (no activator) 0.14, activator 1.42 OD; for inhibition at 0.1 µM: HEK293, read-out: % Inhibition (mean), 100 nM; for inhibition at 10 µM: HEK293, read-out: % Inhibition (mean), 10 μM
Description: The secreted alkaline phosphatase reporter is under the control of a promoter inducible by the transcription factor NF-κB. A library of more than 100 (+)-morphinan compounds was screened for TLR9 antagonist activity by assessing NF-κB activation in the HEK293 cells expressing TLR9. This reporter gene allows the monitoring of signaling through the TLR, based on the activation of NF-κB.
In a 96-well plate (200 μL total volume) containing 50,000 cells/well, 20 μL of each sample compound was added to wells, in triplicate, followed by a 30 minute incubation at 37° C. and 5% CO2. After the 30 minutes of incubation, 20 μL of the activator ODN2006 was added to each well. The media added to the wells was designed for the detection of NF-κB induced SEAP expression. After a 16-20 hr incubation period, the OD at 650 nm was read on a Beckman Coulter AD 340C Absorbance Detector. All compounds were tested at concentrations of 10 μM and 100 nM.

Row | Compound | OD 650 nm (mean ± sd) (100 nM) | OD 650 nm (mean ± sd) (10 μM) | inhibition at 0.1 µM | inhibition at 10 µM | % Inhibition (mean) (100 nM, 0.1 µM) | % Inhibition (mean) (10 μM)
1 | COc1ccc2c3c1O[C@@H]1C(=O)CC[C@]4(O)[C@H](C2)N(C(C)=O)CC[C@@]314 [II-84] | 1.44 ± 0.06 OD | 1.51 ± 0.08 OD | -1% | -6% | – | –
2 | COc1ccc2c3c1O[C@@H]1C(=O)CC[C@@H]4[C@H](C2)N(C(=O)c2ccccc2)CC[C@@]314 [II-33] | 1.35 ± 0.15 OD | 1.37 ± 0.03 OD | 5% | 3% | – | –
3 | COc1ccc2c3c1O[C@@H]1C(OC)(OC)CCC4[C@H](C2)N(CC2CC2)CC[C@]341 (stereo partly drawn) [II-99] | 1.32 ± 0.00 OD | 0.14 ± 0.01 OD | 7% | 90% | – | –
4 | C=CCN1CC[C@@]23c4c5ccc(OC)c4O[C@@H]2C(NC(C)=O)CC[C@@H]3[C@@H]1C5 (stereo partly drawn) [II-20] | 1.29 ± 0.02 OD | 1.07 ± 0.04 OD | 9% | 25% | – | –
5 | COC1=C[C@@H]2[C@@H]3Cc4ccc(OC)c(O)c4[C@]2(CCN3C)CC1O (stereo partly drawn) [Compound I-28] | 1.24 ± 0.02 OD | 0.12 ± 0.01 OD | 13% | 91% | – | –
6 | COC(=O)[C@@H](C)NC1CCC2C3Cc4ccc(OC)c5c4[C@]2(CCN3C)C1O5 (stereo partly drawn) [II-92] | 1.09 ± 0.03 OD | 0.73 ± 0.06 OD | 23% | 48% | – | –
7 | C=C1CC[C@]2(O)[C@@H]3Cc4ccc(O)c5c4[C@]2(CCN3CC2CC2)[C@@H]1O5 [II-77] | 1.24 ± 0.04 OD | 0.98 ± 0.02 OD | 13% | 37% | – | –
8 | COc1ccc2c3c1O[C@@H]1C(=O)CC[C@]4(O)[C@H](C2)N(C(=O)C2CCC2)CC[C@@]314 [II-59] | 1.19 ± 0.07 OD | 1.41 ± 0.13 OD | 17% | 1% | – | –
9 | COc1ccc2c3c1O[C@@H]1C(=O)CC[C@@H]4[C@H](C2)N(Cc2ccccc2)CC[C@@]314 [II-29] | 1.36 ± 0.17 OD | 0.33 ± 0.03 OD | 4% | 77% | – | –
10 | COc1ccc2c3c1O[C@@H]1[C@@H]4CCC5(O4)[C@H](C2)N(CC2CC2)CC[C@@]315 [II-72] | 1.10 ± 0.02 OD | 0.49 ± 0.01 OD | 22% | 65% | – | –
11 | C=CCN1CC[C@@]23c4c5ccc(O)c4O[C@@H]2C(=O)CC[C@]3(O)[C@@H]1C5 [II-64] | 1.31 ± 0.14 OD | 0.98 ± 0.01 OD | 8% | 31% | – | –
12 | C=CCN1CC[C@@]23c4c5ccc(O)c4O[C@@H]2C(=O)CC[C@]3(OC)[C@@H]1C5 [II-70] | 1.12 ± 0.04 OD | 0.79 ± 0.03 OD | 21% | 45% | – | –
13 | CC(=O)NC1CC[C@]2(O)[C@@H]3Cc4ccc(O)c5c4[C@]2(CCN3CC2CC2)[C@@H]1O5 (stereo partly drawn) [II-75] | 1.08 ± 0.02 OD | 0.91 ± 0.11 OD | 24% | 36% | – | –
14 | COc1ccc2c(c1OCc1ccccc1)[C@@]13CCN[C@@H](C2)[C@H]1CC(OC)C(=O)C3 (stereo partly drawn) [Compound I-26] | 1.15 ± 0.03 OD | 0.19 ± 0.02 OD | 19% | 87% | – | –
15 | COc1ccc2c3c1O[C@@H]1[C@@H]4CCC5(O4)[C@H](C2)N(C)CC[C@@]315 [II-46] | 1.24 ± 0.02 OD | 1.30 ± 0.02 OD | 13% | 8% | – | –
16 | COC1=CC=C2[C@@H]3Cc4ccc(OC)c5c4[C@]2(CCN3CC2CCC2)[C@@H]1O5 [II-37] | 1.13 ± 0.07 OD | 0.18 ± 0.06 OD | 20% | 87% | – | –
17 | COc1ccc2c3c1O[C@@H]1C(O)CC[C@]4(O)[C@H](C2)N(CC2CC2)CC[C@@]314 (single isomer, unassigned) [II-53a] | 1.22 ± 0.05 OD | 1.32 ± 0.13 OD | – | – | 14% | 7%
18 | O=C1CC[C@]2(O)[C@@H]3Cc4ccc(O)c5c4[C@]2(CCN3CC2CC2)[C@@H]1O5 [II-73] | 1.35 ± 0.13 OD | 0.96 ± 0.08 OD | 5% | 32% | – | –
19 | COc1ccc2c3c1OC1C(OC(C)=O)CCC4C(C2)N(C)CC[C@]341 (stereo partly drawn) [II-8] | 1.15 ± 0.07 OD | 1.33 ± 0.06 OD | 19% | 7% | – | –
20 | COC1=C[C@]2(O)[C@@H]3Cc4ccc(OC)c(O)c4[C@]2(CCN3C)CC1=O [Compound I-30] | 1.25 ± 0.11 OD | 0.94 ± 0.05 OD | 12% | 33% | – | –
21 | COC1=CC=C2[C@@H]3Cc4c(Br)cc(OCc5ccccc5)c5c4[C@]2(CCN3CC2CC2)[C@@H]1O5 [II-86] | 1.15 ± 0.11 OD | 0.13 ± 0.03 OD | 19% | 91% | – | –
22 | COc1ccc2c(c1O)[C@@]13CCN(CC4CC4)[C@@H](C2)[C@@]1(O)CC(OC)C(=O)C3 (stereo partly drawn) [Compound I-18] | 1.40 ± 0.14 OD | 1.01 ± 0.06 OD | 1% | 29% | – | –
23 | COC(=O)/C=C/c1cc(OC)c(O)c2c1CC1C3CCC(=O)C[C@@]23CCN1CC1CC1 (stereo partly drawn) [II-14] | 1.18 ± 0.05 OD | 0.13 ± 0.00 OD | 17% | 91% | – | –
24 | C=CCN1CC[C@@]23c4c5ccc(OC)c4O[C@@H]2[C@H](O)CC[C@]3(O)[C@@H]1C5 (stereo in doubt) [II-48] | – | – | – | 13% | – | –
25 | C=CCN1CC[C@@]23c4c5c(Br)cc(OC)c4O[C@@H]2C(=O)CCC3C1C5 (stereo partly drawn) [II-16] | 1.43 ± 0.01 OD | 1.24 ± 0.11 OD | -1% | 13% | – | –
26 | COc1cc(Br)c2c(c1OC(C)=O)[C@@]13CCN(CC4CC4)C(C2)C1CCC(=O)C3 (stereo partly drawn) [Compound I-12] | 1.19 ± 0.07 OD | 0.13 ± 0.01 OD | 16% | 91% | – | –
27 | COc1ccc2c(c1O)[C@@]13CCN(CC4CCC4)[C@@H](C2)C1CCC(=O)C3 (stereo partly drawn) [Compound I-29] | 1.06 ± 0.03 OD | 0.11 ± 0.00 OD | 25% | 92% | – | –
28 | C=CCN1CC[C@@]23c4c5ccc(OC)c4O[C@@H]2C(=C)CC[C@]3(O)[C@@H]1C5 [II-51] | 1.20 ± 0.04 OD | 0.84 ± 0.05 OD | 16% | 41% | – | –
29 | COc1ccc2c3c1O[C@@H]1C(=O)CC[C@@H]4[C@H](C2)NCC[C@@]314 [II-12] | 1.12 ± 0.08 OD | 0.81 ± 0.03 OD | 21% | 43% | – | –
30 | COc1ccc2c3c1O[C@@H]1C(O)CC[C@@H]4[C@H](C2)N(CC2CC2)CC[C@@]314 (stereo partly drawn) [II-17] | 1.13 ± 0.10 OD | 0.39 ± 0.01 OD | 21% | 72% | – | –
